Data taken from patent US12071416B2, “Prodrugs of 4-( (1R, 3S)-6-chloro-3-phenyl-2, 3-dihydro-1H-inden-1-yl)-1,2, 2-trimethylpiperazine and 4-( (1R, 3S)-6-chloro-3-(phenyl-D5)-2, 3-dihydro-1H-inden-1-yl)-2, 2-dimethyl-1 (methyl-D3) piperazine” (H. Lundbeck A/S, priority 2018, dated 2024).
Where two headings read alike, the source gives them in different places.

Test: Plasma stability assay
Format: in vitro ADME, human
Procedure: Frozen human plasma (stored at −80° C.) was thawed in a water bath followed by centrifugation at 3200×g for 5 min to remove debris. The pH value of the supernatant was then measured and adjusted to 7.4±0.1 by adding 1% phosphoric acid or 1 N sodium hydroxide.
For each test compound, 2 microL of dosing solution (50 microM for test compounds and 100 microM for positive control; propantheline bromide) were spiked into 98 microL of blank plasma to achieve a final concentration of 1 microM test compound and 2 microM positive control.
The test compounds and positive control were incubated in duplicate with human plasma (final DMSO concentration <1%) in a water bath at 37° C. at six different time points (0, 0.5, 1, 2, 4 and 6 hr). At each corresponding time point the incubations were terminated by adding appropriate volume of quenching solution to stop the reaction.
Afterwards, the plasma samples were briefly vortexed and subsequently centrifuged at 3200×g for 20 min. The supernatant was transferred into a 96-well plate and diluted with 200 microL of ultrapure water in the ratio of 1:2 prior to LC-MS/MS analysis. The peak area ratios (PAR) of analyte/internal standard was used to semi-quantitatively determine the concentration of test compounds and control compound. The percentage of test compound remaining at the individual time points relative to the 0 minute sample was reported.
In the determination of in vitro elimination constant, ke, of the parent drug and controls, the analyte/internal standard peak area ratios were converted to percentage remaining with the following equation: […]
The percentage formation of metabolite was calculated by the analyte/internal standard peak area ratios versus T0 (absolute) of metabolite drug and converted to percentage.
The half-life (T1/2) of parent drug and control compounds were calculated from a log linear plot of analyte/internal standard peak area ratios versus time (T1/2=0.693/ke).
Compounds 1a2, 1b2, 2a2, and 2b2 were incubated in human plasma as described above and half-lives of 0.5-1.5 h were determined with the formation of 15-35% of 4-((1R,3S)-6-chloro-3-phenyl-2,3-dihydro-1H-inden-1-yl)-1,2,2-trimethylpiperazine and 4-((1R,3S)-6-chloro-3-(phenyl-d5)-2,3-dihydro-1H-inden-1-yl)-2,2-dimethyl-1-(methyl-d3)piperazine, respectively.

[1] = human plasma, pH 7.4, 37° C., 1 microM test compound, 0-6 hr, LC-MS/MS, read-out: half-life (T1/2) in human plasma

CC(C)(C)C(=O)OC[N@+]1(C)CCN([C@@H]2C[C@@H](c3ccccc3)c3ccc(Cl)cc32)CC1(C)C.[Cl-] (single isomer, unassigned) [Compound 1a2]
half-life at 1 microM [1]: 0.5 to 1.5 h

CC(C)(C)C(=O)OC[N@@+]1(C)CCN([C@@H]2C[C@@H](c3ccccc3)c3ccc(Cl)cc32)CC1(C)C.[Cl-] (single isomer, unassigned) [Compound 1b2]
half-life at 1 microM (human, plasma, pH 7.4): 0.5 to 1.5 h

[2H]c1c([2H])c([2H])c([C@@H]2C[C@@H](N3CC[N@+](COC(=O)C(C)(C)C)(C([2H])([2H])[2H])C(C)(C)C3)c3cc(Cl)ccc32)c([2H])c1[2H].[Cl-] (single isomer, unassigned) [Compound 2a2]
half-life at 1 microM [1]: 0.5 to 1.5 h

[2H]c1c([2H])c([2H])c([C@@H]2C[C@@H](N3CC[N@@+](COC(=O)C(C)(C)C)(C([2H])([2H])[2H])C(C)(C)C3)c3cc(Cl)ccc32)c([2H])c1[2H].[Cl-] (single isomer, unassigned) [Compound 2b2]
half-life at 1 microM (human, plasma, pH 7.4): 0.5 to 1.5 h
